Test results taken from US7723058B2, “Test system for the determination of in-vivo active hemostasis proteases in biological fluids and/or the usage thereof to determine the in-vivo activation of hemostasis” (priority 2001, dated 2010).
One block for each compound: values may come before it. Where a SMILES comes first, the peptide text is derived from it. [ ]: non-standard residue; d: D form. The star is where a group is joined. dChg = N[C@@H](C(=O)O)C1CCCCC1; pNA = O=[N+]([O-])c1ccc(N*)cc1

Key:
Format in all cases: biochemical
bovine thrombin = biological target: T1, bovine thrombin (Bos taurus, UniProt P00735); experiment: Determination of the Km-value for thrombin in plasma; details: thrombin in plasma after addition of 120 mlU/ml thrombin; 37° C.; read-out: substrate concentration at halfmaximal velocity (Km-value)
T1 construct: activity of thrombin in plasma after addition of 120 mlU/ml thrombin (F IIa); purchased DadeBehring
Procedure: 1. Normal EDTA-plasma with 250 mM arginine, pH 8.7, and 2. normal EDTA-plasma, supplemented with 120 mlU/ml bovine thrombin and 30 min thereafter with 250 mM arginine, pH 8.7, were incubated with 50 μl HD-CHG-Ala-Arg-pNA (0-6.67 mM final) in aqua dest, Delta A/3 h (37° C.) was measured and the value of 1. was subtracted from the value of 2. The resulting difference corresponds to the activity of thrombin in plasma after addition of 120 mlU/ml thrombin (F IIa). Result the maximal enzyme velocity is 800 mA/3 h the substrate concentration at halfmaximal velocity (Km-value) is 0.3 mM.

normal plasma = experiment: Inhibition of the 1-step CPC by arginine; details: plasmatic concentrations of arginine above 100 mM
Procedure: The CPC-test was performed in the 1-step mode as follows: 100 μl normal plasma, containing increasing concentrations of arginine (0-300 mM), pH 8.7 were incubated with 50 μl 1.7 mM HD-CHG-Ala-Arg-pNA in aqua dest. and 50 μl Pathromtin SL®, The increase in absorbance/t (t=0-10 min RT) was determined. Result: at plasmatic concentrations of arginine above 100 mM the Pathromtin SL®-CPC is decreased to 0% (compared to a normal plasma without arginine=100%),

normal plasma (citrated) = experiment: Optimization of the test concentration of contact phase activator in the CPC
Procedure: To optimize the contact phase activator in the CPC 100 μl • a) Neothromtin® (0.6 g/l ellagic acid (3 ml vial Dade Behring in 1.5 ml H2O) • b) Pathromtin® (5 g/l Kaolin, Dade Behring) • c) Pathromtin SL® (SiO2, Dade Behring) in 1:1, 1:2, 1:4, 1:8, 1:16, 1:32, 1:64, 1:128 dilution with H2O or for control 100 μl H2O were incubated with 100 μl 1.5 mmol/l HD-CHG-Ala-Arg-pNA in PBS and with 100 μl normal plasma (citrated) for 4 min (RT). The increase In extinction (405 nm)/4 min was determined.

Control Plasma N® (CPN) = experiment: Comparison of different CPC-approaches; details: CPN; approaches B) and C)
Procedure: For n=22 citrated plasmas of patients and the Control Plasma N® (CPN) the following CPC-approaches were performed, 2-step-approaches A, B, C and 1-step-approaches D, E, F. • A) 50 μl Plasma+25 μl Pathromtin SL® (SiO2) • B) 50 μl Plasma+25 μl Pathromtin® (kaolin, in H2O twofold diluted) • C) 50 μl Plasma+25 μl Neothromtin® (ellagic acid)
3 min RT time of activation; +25 μl 1.7 mM HD-CHG-Ala-Arg-pNA, 750 mM arginine, 6.4 g/l EDTA, pH 8.7 • D) 50 μl Plasma+25 μl 1.7 mM CH3SO2-D-CHG-Gly-Arg-pNA • E) 50 μl Plasma+13 μl 1.5 M arginine, pH 8.7, +50 μl 1.7 mM CH3SO2-D-CHG-Gly-Arg-pNA • F) 50 μl Plasma+25 μl 1.7 mM HD-CHG-Ala-Arg-pNA in H2O+25 μl Pathromtin SL®
Determination of delta A at 405 nm (RT). The respective changes in extinction were correlated with each other. Result: Pathromtin SL®-2-step-CPC correlated with Pathromtin SL®-1-step-CPC with r=0.798 (delta A/13 min (RT) for CPN in 2-step-CPC=354 mA; delta A/2 min (RT) for CPN-547 mA, i.e. in the 1-step-CPC a […] higher Thrombin-Like Activity is generated compared with the 2-step-CPC; the corresponding values for approaches B) and C) are approx. 30% or 20% lower, respectively. […] Thus, even in arginine-stabilized plasma the amidolytic activity against CH3SO2-D-CHG-Gly-Arg-pNA can reliably be determined, what is valid for chromogenic substrates with a CH3SO2-group.

CPN = experiment: Aprotinin titration in CPN; details: 50 min 37° C.
Procedure: (§1) 25 μl plasma of a pancreatitis-patient (citrated), 25 μl CPN, 25 μl 36 pkat/ml bovine Factor Xa in PBS, 0.1% Triton X 100®, were incubated with 25 μl assay buffer, containing 600 mM NaHCO3, ph 8.7 with and without 600 mM arginine, 25 μl 25 mM chloramines T®, 25 μl 3 mM N-α-Z-D-Arg-Gly-Arg-pNA 2HCl (S-2765®; Chromogenix, Mölndal, Sweden) and 25 μl Aprotinin (0, 2, 20, 200, 2000, 20000 KIU/ml) for 50 min at 37° C. and the increase in extinction at 405 nm during this incubation time was determined with a microtiterplate-photometer.

active trypsin = experiment: Detection of active trypsin in plasma, aprotinin titration, pancreatitis plasma; details: 50 min 37° C.
Procedure: as §1

bovine Factor Xa = biological target: T2, bovine Factor Xa (Bos taurus, UniProt P00743); experiment: Aprotinin on pure factor Xa; details: 36 pkat/ml bovine Factor Xa; substrate S-2765
T2 construct: 25 μl 36 pkat/ml bovine Factor Xa in PBS
Procedure: as §1, with “[…],” for “25 μl plasma of a pancreatitis-patient (citrated), 25 μl CPN, 25 μl 36 pkat/ml bovine Factor Xa in PBS,”

[1] = Standardization of GACA with a pure enzyme-reagent / FEIBA; details: pure enzyme in 500 mM arginine, 2% Hämaccel, 0.1% Triton X 100
Procedure: The GACA was performed with 100 μl pure bovine thrombin (0-18 mlU/ml; DadeBehring), pure bovine Factor Xa (0-150 pkat/ml) or a Factor-Eight-Inhibitor-Bypassing-Activity-concentrate (0-2.6 units/ml; FEIBA®, Immuno, Wien) in 500 mM arginine, 2% Hämaccel®, 0.1% Triton X 100® (substrate here=HD-CHG-Ala-Arg-pNA. Additional samples were Control Plasma N® (CPN, DadeBehring) or CPN supplemented with FEIBA (0-2.6 units/ml). The incubation was varied from 0 to 4 h. The respective change in extinction was measured. Result: There appears a linear relationship between the thrombin- or factor Xa-concentration used and the resulting change in extinction, and also between incubation time and change in extinction. 6 mlU/ml IIa or 45 pkat/ml Xa result in a change in extinction, that corresponds to that of normal plasma (100% GACA). Thus, the GACA can be calibrated and standardized with pure thrombin- or factor Xa-reagent. CPN with 2.6 units/ml FEIBA has a GACA-value of approx. 200%, i.e. this addition of FEIBA to CPN increases the GACA-value from 100% to […].

[2] = tested on: normal EDTA-Plasma supplemented with bovine thrombin (pathoplasma); experiment: GACA, optimization of the concentration of substrate, pathoplasma
Procedure: Before and after the incubation the extinction at 405 nm was determined.
The ratio of the extinctions of pathoplasma and normal plasma approximates the value of 1 at final substrate concentrations >1.5 mM. The higher this value the more specific is the assays for pathologic activation of hemostasis, here imitated by addition of 120 mlU/ml bovine thrombin. This ratio reaches maximal values at final substrate concentrations ≦1 mM. However, the maximal change in extinction decreases at low substrate concentrations, especially at substrate concentrations below 0.3 mM, i.e. substrate exhaustion occurs. Therefore the final substrate concentration in the GACA should be between 0.3 mM and 1.0 mM, preferentially between 0.5 mM and 0.8 mM, particularly at 0.56 mM. At this final substrate concentration the assay is very specific for activation of hemostasis, and consequently the determination of CPC (approach B) can be neglected where appropriate. Thus, the GACA-value corresponds to the uGACA-value at a final substrate concentration of up to 0.8 mM, i.e. GACA=approach A (without correction is by approach B). After addition of thrombin to EDTA-plasma 90% of thrombin is inactivated, in the GACA only 10% of the added enzyme activity can be detected.

[3] = 25 μl 2 KIU/ml, absence of arginine
[4] = 25 μl 2 KIU/ml, presence of arginine
[5] = 25 μl 20 KIU/ml, absence of arginine
[6] = 25 μl 20 KIU/ml, presence of arginine
[7] = 25 μl 200 KIU/ml, absence of arginine
[8] = 25 μl 200 KIU/ml, presence of arginine
[9] = 25 μl 2000 KIU/ml, absence of arginine
[10] = 25 μl 2000 KIU/ml, presence of arginine
[11] = 25 μl 20000 KIU/ml, absence of arginine
[12] = 25 μl 20000 KIU/ml, presence of arginine

T2 sequence (P00743 234-492 limits assumed): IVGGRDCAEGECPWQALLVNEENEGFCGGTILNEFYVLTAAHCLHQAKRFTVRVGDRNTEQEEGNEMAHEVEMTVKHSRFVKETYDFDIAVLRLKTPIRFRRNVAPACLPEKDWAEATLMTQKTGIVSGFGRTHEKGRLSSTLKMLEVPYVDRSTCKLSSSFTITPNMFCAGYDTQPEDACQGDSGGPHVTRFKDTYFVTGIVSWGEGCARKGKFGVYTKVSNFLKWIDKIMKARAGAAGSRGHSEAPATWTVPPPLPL
T2 sequence (P00743 41-180 partner limits assumed): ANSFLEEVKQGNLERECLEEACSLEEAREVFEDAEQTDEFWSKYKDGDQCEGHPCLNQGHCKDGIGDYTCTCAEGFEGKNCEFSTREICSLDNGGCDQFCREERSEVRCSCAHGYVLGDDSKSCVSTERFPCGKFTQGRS

inhibition of pure factor Xa (bovine Factor Xa): not inhibited
Compound: aprotinin
increase in extinction in the CPN (CPN; [3]): 134 mA
increase in extinction in the CPN (CPN; [4]): 133 mA
increase in extinction in the CPN (CPN; [5]): 135 mA
increase in extinction in the CPN (CPN; [6]): 126 mA
increase in extinction in the CPN (CPN; [7]): 108 mA
increase in extinction in the CPN (CPN; [8]): 126 mA
increase in extinction in the CPN (CPN; [9]): 118 mA
increase in extinction in the CPN (CPN; [10]): 125 mA
increase in extinction in the CPN (CPN; [11]): 124 mA
increase in extinction in the CPN (CPN; [12]): 123 mA
increase of extinction (active trypsin; [3]): 733 mA
increase of extinction (active trypsin; [4]): 778 mA
increase of extinction (active trypsin; [5]): 715 mA
increase of extinction (active trypsin; [6]): 709 mA
increase of extinction (active trypsin; [7]): 531 mA
increase of extinction (active trypsin; [8]): 685 mA
increase of extinction (active trypsin; [9]): 294 mA
increase of extinction (active trypsin; [10]): 497 mA
increase of extinction (active trypsin; [11]): 103 mA
increase of extinction (active trypsin; [12]): 259 mA

concentration giving a change in extinction that corresponds to normal plasma (100% GACA) [1]: 6 mlU/ml
Compound: thrombin: pure bovine thrombin (DadeBehring)
thrombin inactivated after addition to EDTA-plasma [2]: 90%
added enzyme activity that can be detected in the GACA ([2]; after addition of thrombin to EDTA-plasma): 10%

More lines, now with the values behind:

Compound: C[C@H](NC(=O)[C@H](N)C1CCCCC1)C(=O)N[C@@H](CCCNC(=N)N)C(=O)Nc1ccc([N+](=O)[O-])cc1 [HD-CHG-Ala-Arg-pNA, HD-CHG-Ala-Arg-pNA.2AcOH] (H-[dChg]-Ala-Arg-pNA)
Km (bovine thrombin): 300 µM

Compound: N=C(N)NCCC[C@H](N)C(=O)O [arginine]
Pathromtin SL®-CPC compared to a normal plasma without arginine=100% (normal plasma): 0%

Compound: O=c1oc2c(O)c(O)cc3c(=O)oc4c(O)c(O)cc1c4c23 [ellagic acid]
test concentration at optimal activity of protease (normal plasma (citrated); CPC, 4 min RT): 0.05 g/L
delta A (normal plasma (citrated); at optimal test concentration of contact phase activator, 405 nm, RT): 1443 mA/4 min
2-step-CPC value lower than with Pathromtin SL® (Control Plasma N® (CPN)): ~20%
